Literature values in US6194433A, “Sexual dysfunction in females” (Cutler; Neal R., priority 1998, dated 2001).

Experiments:
phosphodiesterase III = conditions: Gristwood et al., Br. J. Pharmacol. 105:985 (1992)
[1] = Perreault et al., Br. J Pharmacol. 106:511 (1992)
[2] = following coronary artery ligation; Jones et al., Br. J. Pharmacol. 108:1111 (1993)
[3] = Kelso et al., J Cardiovasc. Pharmacol. 25:376 (1995)
phosphodiesterase = conditions: Frodsham et al., Eur. J. Pharmacol. 211:383 (1992)
[4] = not given; remark: listed apart in the source

| time of peak metabolite plasma levels ([4]; following oral dosage of flosequinan) | Compound | inhibition of phosphodiesterase III (phosphodiesterase III) | effect in patients with end-stage failure [1] | effect on mortality or arrhythmias [2] | solubility in organic solvents (many organic solvents) | water solubility (water) | usefulness in the treatment of heart failure [3] | phosphodiesterase inhibition as relevant to efficacy in heart failure (phosphodiesterase) | time of peak plasma concentrations of flosequinan ([4]; following oral administration) [h] | mean absolute bioavailability ([4]; oral, single dose of fifty milligrams) [%] |
| --- | --- | --- | --- | --- | --- | --- | --- | --- | --- | --- |
|  | Cn1cc([S+](C)[O-])c(=O)c2ccc(F)cc21 (stereo not shown) [flosequinan, 7-fluoro-1-methyl-3-methylsulphinyl-4-quinolone] | selective inhibitor of phosphodiesterase III | little effect | does not affect mortality or arrhythmias | soluble in many organic solvents | water soluble | useful to some degree | questionable | 1 to 2 | 72 |
| about seven | Cn1cc(S(C)(=O)=O)c(=O)c2ccc(F)cc21 [metabolite] |  |  |  |  |  |  |  |  |  |
